Our source for the IC50 values is ChEMBL document CHEMBL5726158, “5H-pyrido[3,2-B]indole compounds as anticancer agents” (2019).

For orientation: IC50 means the concentration that gives 50% inhibition.

In the assay the target is Bromodomain-containing protein 4 (Homo sapiens, UniProt O60885). As to the kind of experiment: Time Resolved Fluorescence Resonance Energy Transfer (TR-FRET) Assay: The binding of compounds to bromodomain BRD4 (44-168), BRD4 (333-460), and BRD4 (1-477 or 44-460) was assessed using a time resolved fluorescent resonance energy transfer binding assay (1), that measures the binding of a fluorescently labeled probe molecule to the bromodomain protein. The bromodomain protein, fluorescent probe molecule (either a biotinylated histone peptide or a fluorescently labeled small molecule), and dose-responsed test compound are incubated together to reach thermodynamic equilibrium. In the absence of a test compound, the bromodomain and small molecule are bound, resulting in a high fluorescent signal. In the presence of a sufficient concentration of inhibitor, this interaction is disrupted resulting in a lost of fluorescent resonance energy transfer.All assay components were dissolved in buffer composition 20 mM Hepes pH 7.5, 150 mM NaCl, 5 mM DTT, 0.005% Tween 20, and 100 ug/ml BSA for BRD4 (1-477 and 44-460). The final concentrations of the bromodomain proteins are 1.6 nM BRD4(44-168), 1 nM BRD4(333-460), and 1 nM BRD4(1-477 or 44-460), and the fluorescent probe molecule is 100 nM, 50 nM, and 7.5 nM respectively. All proteins were biotinylated. […].

Take `Cc1nnn(C)c1-c1cnc2c3cc(C4CCN(C(=O)OC(C)(C)C)CC4)ccc3n([C@H](c3ccccc3)C3CCOCC3)c2c1`: the IC50 is under 5 nM.
